Results published in patent US20030083313A1, “Means of tumor therapy” (priority 1998, published 2003).

Assays:
[1] = Alteration of body weight in the in vivo treatment test; conditions: 3366/Tam-bearing female NMRI nude mice, dose Tam/Lipid mg/kg/injection as per group, twice a day for 4 weeks
Description: (§1) Tam liposomes according to Example 4 are used for the in vivo treatment test. As a tumor model, breast cancer 3366/Tam is transplanted onto female NMRI nude mice and the treatment started when the tumor is palpable. The animals are given one dose of liposomes with 50 mg/kg Tam (and correspondingly 25 mg/kg OPP) twice a day for 4 weeks. As controls, liposomes containing no Tam are administered, in addition one group being treated with free Tam. The tumor growth in relation to the control group (physiological salt solution) is determined and portrayed as a percentage T/C, as shown in FIG. 1 and in Table 1. […] The living cells were determined with the MTT assay.

breast cancer 3366/Tam = assay: Therapeutic effectivity on tamoxifen-resistant breast cancer xenograft, tumor growth as T/C; assay type: in vivo; conditions: 3366/Tam tumor on female NMRI nude mice; dose Tam/Lipid mg/kg/injection as per group (50/0, 50/25, 0/25), twice a day for 4 weeks
Description: as §1

CC/C(=C(\c1ccccc1)c1ccc(OCCN(C)C)cc1)c1ccccc1 [tamoxifen]
Alteration of body weight % (day 29/51) [1]: −5% | T/C (tumor growth in relation to the control group, physiological salt solution) (breast cancer 3366/Tam): 91%
